Test results taken from patent publication US6531508B1, “Antibacterial medicinal compositions” (priority 1999, dated 2003).

Legend:
[1] = Gastrointestinal absorption of compound 1 after oral administration (plasma AUC); type: in vivo, Sprague-Dawley rats; conditions: rat; for AUC: male, Sprague-Dawley, compound 1 as free acid in plasma
Experimental: Seven-week old male Sprague-Dawley rats orally received 70.5 mg/kg (57.1 mg (potency)/kg) of compound 1 and 57.1 mg/kg of disodium ethylenediaminetetraacetate. Controls orally received 70.5 mg/kg of compound 1 alone. At 0.1-10 hours after administration, blood was collected. The concentration of compound 1 as free acid in plasma was determined by high-performance liquid chromatography. For determination, plasma was used after pretreatment. That is, 0.2 mL of plasma was stirred with 0.2 mL of acetonitrile and then centrifuged at 4° C., 12000 rpm for 15 min. Two hundreds μL of this supernatant was diluted in 800 μL of 10 mM phosphate buffer, and 200 μL of this dilution was applied on a high-performance liquid chromatography column. The chromatography conditions were as follows. A stainless steel high-performance liquid chromatographic column packed with octadecylsilyl silica gel was used. The column temperature was room temperature. The mobile phase consisted of a binder containing 680 mL of a 20 mM aqueous sodium dihydrogenphosphate solution adjusted at pH 2 with phosphoric acid and 320 mL of acetonitrile. The flow rate was controlled at 1 mL/min. For detection, a UV absorption spectrometer was used at a wavelength of 318 nm.

[2] = tested on: methicillin-sensitive Staphylococcus aureus (MSSA), Streptococcus pyrogenes and Streptococcus pneumoniae, penicillin-resistant pneumococci (PRSP), oral …; conditions: reported in the literature; gram-positive bacteria incl. strains where conventional β-lactams are ineffective; cited from earlier work
Porphyromonas gingivalis = conditions: reported in the literature; cited from earlier work
[3] = tested on: bacterial strains from dental infectious diseases; conditions: reported in the literature; increasingly resistant strains; cited from earlier work

Change of AUC versus control group ([1]; group coadministered with disodium ethylenediaminetetraacetate compared with compound 1 alone): approximately doubled
AUC ([1]; 70.5 mg/kg compound 1 with 57.1 mg/kg disodium ethylenediaminetetraacetate): 24800 ± 9300 ng·h/mL
AUC ([1]; control group: 70.5 mg/kg compound 1 alone): 12600 ± 5700 ng·h/mL
Compound: C[C@@H](O)[C@H]1C(=O)N2C(C(=O)O)=C([C@H]3CCCO3)S[C@H]12 [compound 1, Sodium (+)-(5R,6S)-6-[(R)-1-hydroxyethyl]-7-oxo-3-[(R)-2-tetrahydrofuryl]-4-thia-1-azabicyclo[3.2.0]hept-2-ene-2-carboxylate 5/2 hydrate]
Antibacterial activity [2]: potent antibacterial activity
Antibacterial activity (Porphyromonas gingivalis): potent antibacterial activity
Antibacterial activity [3]: potent antibacterial activity
